The values below come from PMC8035258 (ChemMedChem, 2021).

Where two headings read alike, the source gives them in different places.

For assay [1], the system named is low tumorigenic human endothelial kidney (HEK293) cells. Kind of assay: MTS cytotoxicity assay in HEK293 cells. Particulars: read-out: HEK293 IC50. It counts as cell-based.
In another assay the test system is TNBC MDA-MB-468 cells. Kind of assay: MTS cytotoxicity assay in MDA-MB-468 cells. Type of assay: cell-based. Particulars: for SI (Selectivity Index): MDA-MB-468 over HEK293 cells; for IC50: read-out: MDA-MB-468 IC50, 72 hours, mean ±SD of n=3.
Assay [2] concerns the target Mitochondrial respiratory complex II (Mus musculus, UniProt Q8K2B3+Q9CQA3+Q9CXV1+Q9CZB0). The assay is described as follows: Complex II inhibition assay. Type of assay: biochemical. Particulars: for inhibition at 100 µM: read-out: % Inhibition CII (100 μM), 100 μM; for inhibition at 100 µM / % Inhibition CII (100 μM): mouse liver mitochondria, mean ±SD of n = 4.
The test system of assay [3] is 22Rv1 prostate cancer cells. The assay is described as follows: MTS cytotoxicity assay in 22Rv1 prostate cancer cells. Type of assay: cell-based. Particulars: 100 μM, 48 hr treatment, MTS.

Sequence of Mitochondrial respiratory complex II (Q8K2B3 43-664): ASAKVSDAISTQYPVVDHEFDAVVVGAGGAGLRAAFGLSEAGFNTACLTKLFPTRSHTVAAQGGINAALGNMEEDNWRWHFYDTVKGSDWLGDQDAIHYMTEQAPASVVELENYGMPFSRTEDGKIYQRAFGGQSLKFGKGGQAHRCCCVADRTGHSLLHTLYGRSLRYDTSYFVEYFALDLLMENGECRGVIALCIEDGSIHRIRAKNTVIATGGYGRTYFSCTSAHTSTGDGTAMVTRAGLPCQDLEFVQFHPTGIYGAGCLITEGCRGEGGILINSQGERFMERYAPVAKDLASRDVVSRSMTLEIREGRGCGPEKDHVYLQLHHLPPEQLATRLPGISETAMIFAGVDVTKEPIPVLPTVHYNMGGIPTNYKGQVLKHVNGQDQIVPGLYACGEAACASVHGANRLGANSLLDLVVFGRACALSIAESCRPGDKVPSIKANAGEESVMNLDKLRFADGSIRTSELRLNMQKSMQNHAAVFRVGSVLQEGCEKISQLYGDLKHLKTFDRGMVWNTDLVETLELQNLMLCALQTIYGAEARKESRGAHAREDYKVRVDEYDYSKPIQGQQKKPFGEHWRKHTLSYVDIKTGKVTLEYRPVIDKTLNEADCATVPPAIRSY
Sequence of Mitochondrial respiratory complex II (Q9CQA3 31-282): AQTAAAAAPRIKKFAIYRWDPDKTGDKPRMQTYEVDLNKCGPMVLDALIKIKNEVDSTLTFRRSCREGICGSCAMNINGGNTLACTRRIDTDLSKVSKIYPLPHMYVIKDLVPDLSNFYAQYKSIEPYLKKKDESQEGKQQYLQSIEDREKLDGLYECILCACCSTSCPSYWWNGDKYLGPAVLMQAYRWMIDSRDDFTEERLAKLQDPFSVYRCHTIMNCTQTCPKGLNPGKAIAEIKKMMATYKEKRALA
Sequence of Mitochondrial respiratory complex II (Q9CZB0 30-169): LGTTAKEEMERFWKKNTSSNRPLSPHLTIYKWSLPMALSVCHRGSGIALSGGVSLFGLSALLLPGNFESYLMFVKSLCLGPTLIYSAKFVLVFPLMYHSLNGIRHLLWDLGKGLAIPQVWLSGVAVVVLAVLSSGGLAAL
Sequence of Mitochondrial respiratory complex II (Q9CXV1 57-159): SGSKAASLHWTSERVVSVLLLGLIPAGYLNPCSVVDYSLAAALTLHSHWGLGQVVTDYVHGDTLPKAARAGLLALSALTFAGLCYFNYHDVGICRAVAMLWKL

For orientation: IC50 means the concentration that inhibits the measured activity by half. For `O=c1[nH]cc(F)c(=O)[nH]1` [5-Fluorouracil, reference compound], in assay [1] (Homo sapiens, HEK293, 72 h), the IC50 stood at 7.06 ± 0.8 µM. Besides, the entries for the “SI (Selectivity Index)” value in the assay on TNBC MDA-MB-468 cells and in the assay with TNBC MDA-MB-468 cells (listed as 5-fluorouracil) were 1.03 and 1, respectively.

The term inhibition denotes how much of the control response was suppressed. With `O=S1(=O)NC(=S)Nc2cc(Cl)ccc21` [Compound 12b, 6-Chloro-3-thioxo-3,4-dihydro-2H-1,2,4-benzothiadiazine 1,1-dioxide], in assay [2], 11.9 ± 3.3 µM corresponded to half-maximal inhibition (IC50) and the inhibition at 100 µM came out at 81 ± 6.9%. In addition, the “reduction of 22Rv1 cell viability” value in assay [3] came to 12%.

`O=S1(=O)NC(=S)Nc2ccc(Br)cc21` [Compound 12c, 7-Bromo-3-thioxo-3,4-dihydro-2H-1,2,4-benzothiadiazine 1,1-dioxide]: in assay [2], half-maximal inhibition (IC50) was put at 37 ± 2.4 µM and the inhibition at 100 µM came to 55 ± 15.2%. Also, the “reduction of 22Rv1 cell viability” value in assay [3] was 16%.

As to `CC(C)C(C)NC1=NS(=O)(=O)c2cc(Br)ccc2N1` (centres unmarked) [Compound 15c, 7-Bromo-3-((3-methylbutan-2-yl)amino)-4Hbenzo[e][1,2,4]thiadiazine 1,1-dioxide], the inhibition at 100 µM in assay [2] came out at 19 ± 10.4%. For the same compound, in assay [1] (Homo sapiens, HEK293, 72 h), the IC50 is 35.7 ± 1.6 µM. In the assay with TNBC MDA-MB-468 cells, the “SI (Selectivity Index)” value came to 1.75.

As to `O=S1(=O)N=C(NCc2ccc(Cl)cc2)Nc2cc(Cl)ccc21` [Compound 16b, 6-Chloro-3-((4-chlorobenzyl)amino)-4H-benzo[e][1,2,4]thiadiazine 1,1-dioxide], the “reduction of 22Rv1 cell viability” value in assay [3] is reported as 10%.

For the compound `O=S1(=O)N=C(NCc2ccc(Cl)cc2)Nc2ccc(Br)cc21` [Compound 16c, 7-Bromo-3-((4-chlorobenzyl)amino)-4H-benzo[e][1,2,4]thiadiazine 1,1-dioxide dioxide], the “% Inhibition CII (100 μM)” value in assay [2] was found to be 45 ±5.6%. Further, the IC50 in assay [1] (72 hours, mean ±SD of n=3) stood at 43.1 ± 3.2 µM; in the assay with TNBC MDA-MB-468 cells, 12.5 ± 0.3 µM.

As to `O=S1(=O)N=C(NCCc2ccccc2)Nc2ccc(Br)cc21` [Compound 18c, 7-Bromo-3-(phenethylamino)-4H-benzo[e][1,2,4]thiadiazine 1,1-dioxide], the inhibition at 100 µM in assay [2] was 37 ± 4.7%. Besides, the IC50 in assay [1] (Homo sapiens, HEK293, 72 h) stood at 63.1 ± 1.8 µM. The “SI (Selectivity Index)” value in the assay on TNBC MDA-MB-468 cells came out at 3.4.

For the compound `O=S1(=O)N=C(NC2CCCC2)Nc2cc(Cl)ccc21` [Compound 22b, 6-Chloro-3-(cyclopentylamino)-4H-benzo[e][1,2,4]thiadiazine 1,1-dioxide], in assay [3], the “reduction of 22Rv1 cell viability” value amounted to 34%.

For `O=S1(=O)N=C(NCCCc2ccccc2)Nc2ccc(F)cc21` [Compound 23a, 7-Fluoro-3-((3-phenylpropyl)amino)-4H-benzo[e][1,2,4]thiadiazine 1,1-dioxide], the inhibition at 100 µM in assay [2] came to 14 ± 10.4%. In addition, in assay [1] (Homo sapiens, HEK293, 72 h), the IC50 worked out at 181 ± 7.3 µM. Besides, in the assay on TNBC MDA-MB-468 cells, the “SI (Selectivity Index)” value was determined as 3.12.

On to `O=S1(=O)N=C(NCc2ccc(C(F)(F)F)cc2)Nc2cc(Cl)ccc21` [Compound 25b, 6-Chloro-3-((4-(trifluoromethyl)benzyl)amino)-4Hbenzo[e][1,2,4]thia-d iazine 1,1-dioxide], for which the “% Inhibition CII (100 μM)” value in assay [2] amounted to 19 ±10.1%. For the same compound, the IC50 with TNBC MDA-MB-468 cells was 25.1 ± 3.8 µM.

On to `COc1ccccc1CNC1=NS(=O)(=O)c2cc(F)ccc2N1` [Compound 26a, 7-Fluoro-3-((2-methoxybenzyl)amino)-4H-benzo[e][1,2,4]thiadiazine 1,1-dioxide], for which the inhibition at 100 µM in assay [2] is 27 ± 5.6%. In addition, the IC50 in assay [1] (Homo sapiens, HEK293, 72 h) was determined as 47.6 ± 2 µM. In addition, in the assay with TNBC MDA-MB-468 cells, the “SI (Selectivity Index)” value was 3.03.

With `COc1ccccc1CNC1=NS(=O)(=O)c2cc(Br)ccc2N1` [Compound 26c, 7-Bromo-3-((2-methoxybenzyl)amino)-4H-benzo[e][1,2,4]thiadiazine 1,1-dioxide], in assay [2], the inhibition at 100 µM was determined as 44 ± 12.3%. Besides, in assay [1] (Homo sapiens, HEK293, 72 h), the IC50 turned out to be 54.4 ± 4.2 µM. In addition, the “SI (Selectivity Index)” value with TNBC MDA-MB-468 cells is on record as 4.

For the compound `O=S1(=O)N=C(NCc2ccc(OC(F)(F)F)cc2)Nc2ccccc21` [Compound 30d, 3-((4-(Trifluoromethoxy)benzyl)amino)-4H-benzo[e][1,2,4]thiadiazine 1,1-dioxide], in assay [2], the inhibition at 100 µM was determined as 7 ± 6.2%. In addition, the “reduction of 22Rv1 cell viability” value in assay [3] is “approximately 30%”.

As for `C=CCNC1=NS(=O)(=O)c2cc(F)ccc2N1` [Compound 32a, 3-(Allylamino)-7-fluoro-4H-benzo[e][1,2,4]thiadiazine 1,1-dioxide], in assay [2], the inhibition at 100 µM came to 38 ± 7.8%. In addition, the “reduction of 22Rv1 cell viability” value in assay [3] was 24%.

On to `O=S1(=O)N=C(NCCc2ccc(F)cc2)Nc2ccc(Br)cc21` [Compound 33c, 7-Bromo-3-((4-fluorophenethyl)amino)-4H-benzo[e][1,2,4]thiadiazine 1,1-dioxide], for which the inhibition at 100 µM in assay [2] stood at 45 ± 17.1%. Further, in assay [1] (Homo sapiens, HEK293, 72 h), the IC50 came out at 48.7 ± 12 µM. For the same compound, in the assay on TNBC MDA-MB-468 cells, the “SI (Selectivity Index)” value is 2.42.

On to `O=S1(=O)N=C(NCc2ccccc2C(F)(F)F)Nc2ccc(Br)cc21` [Compound 35c, 7-Bromo-3-((2-(trifluoromethyl)benzyl)amino)-4H-benzo[e][1,2,4]thiadiazine 1,1-dioxide], for which, in assay [2], the inhibition at 100 µM turned out to be 29 ± 5.9%.

Regarding `O=S1(=O)N=C(NCCc2c[nH]c3ccccc23)Nc2ccc(F)cc21` [Compound 36a, 3-((2-(1H-indol-3-yl)ethyl)amino)-7-fluoro-4H-benzo[e][1,2,4]thiadiazine 1,1-dioxide], the inhibition at 100 µM in assay [2] was 17 ± 8.2%. The “reduction of 22Rv1 cell viability” value in assay [3] is 30%.

On to `O=S1(=O)N=C(NCCc2c[nH]c3ccccc23)Nc2cc(Cl)ccc21` [Compound 36b, 3-((2-(1H-indol-3-yl)ethyl)amino)-6-chloro-4H-benzo[e][1,2,4]thiadiazine 1,1-dioxide], for which, in assay [2], the inhibition at 100 µM was 25 ± 19%. Besides, in assay [1] (Homo sapiens, HEK293, 72 h), the IC50 was found to be 41.3 ± 5.2 µM. The “SI (Selectivity Index)” value in the assay with TNBC MDA-MB-468 cells amounted to 2.66.

For `O=S1(=O)N=C(NCCc2ccc(Cl)cc2)Nc2ccc(F)cc21` [Compound 37a, 3-((4-Chlorophenethyl)amino)-7-fluoro-4H-benzo[e][1,2,4]thiadiazine 1,1-dioxide], in assay [2], the inhibition at 100 µM stood at 34 ± 18.4%.

`O=S1(=O)N=C(NCc2ccc(SC(F)(F)F)cc2)Nc2ccc(F)cc21` [Compound 38a, 7-Fluoro-3-((4-((trifluoromethyl)thio)benzyl)amino)-4H-benzo[e] [1,2,4]thiadiazine 1,1-dioxide]: the inhibition at 100 µM in assay [2] turned out to be 23 ± 12.3%.

Consider `COc1ccc(CCNC2=NS(=O)(=O)c3cc(F)ccc3N2)cc1` [Compound 39a, 7-Fluoro-3-((4-methoxyphenethyl)amino)-4H-benzo[e][1,2,4]thiadiazine 1,1-dioxide], for which the inhibition at 100 µM in assay [2] is 18 ± 6.2%. Further, the IC50 in assay [1] (Homo sapiens, HEK293, 72 h) was found to be 123 ± 21.4 µM. For the same compound, the “SI (Selectivity Index)” value in the assay with TNBC MDA-MB-468 cells stood at 3.27.

For the compound `O=S1(=O)N=C(NCCc2cccc(C(F)(F)F)c2)Nc2ccc(F)cc21` [Compound 41a, 7-Fluoro-3-((3-(trifluoromethyl)phenethyl)amino)-4H-benzo[e][1,2,4] thiadiazine 1,1-dioxide], the inhibition at 100 µM in assay [2] worked out at 20 ± 5.2%.

On to `CSC1=NS(=O)(=O)c2cc(F)ccc2N1C` [Compound 42a, 7-Fluoro-4-methyl-3-(methylthio)-4H-benzo[e][1,2,4]thiadiazine 1,1-dioxide], for which the inhibition at 100 µM in assay [2] amounted to 6 ± 13.4%.

Take `CSC1=NS(=O)(=O)c2ccccc2N1C` [Compound 42d, 4-Methyl-3-(methylthio)-4H-benzo[e][1,2,4]thiadiazine 1,1-dioxide]: the inhibition at 100 µM in assay [2] is 0%.

With `CC(C)NC1=NS(=O)(=O)c2ccccc2N1C` [Compound 43d, 3-(Isopropylamino)-4-methyl-4H-benzo[e][1,2,4]thiadiazine 1,1-dioxide], the inhibition at 100 µM in assay [2] is 0%.
